# Reference: patent publication US20260325500A1, “METHODS AND COMPOSITIONS FOR TREATING ACUTE STRESS DISORDER” (BioXcel Therapeutics, Inc., priority 2022, published 2026)
# “Also recorded” adds a separate entry of the source. Structures can show the parent of a compound that is named as a salt.
# Tests used:
# [1] = tested on: Yohimbine-induced noradrenergic mediated hyperarousal in Wistar rats; assay: Elevated plus maze, yohimbine-induced noradrenergic mediated hyperarousal (Example 2); assay type: in vivo
# Text: Background: Yohimbine is an alpha 2-adrenergic receptor antagonist reported to trigger panic attacks in healthy volunteers and to exacerbate symptoms in patients with panic disorder (Charney et al., 1992 Acta Psychiatr Scand., Vol. 86 (4): 273-282). Peripheral administration of Yohimbine causes noradrenergic mediated hyperarousal in rats as assessed by the EPM paradigm.
# Rationale: The drug yohimbine is a natural product used to test a specific pathway, noradrenergic-mediated hyper-arousal. It is well established that yohimbine is an alpha2-adrenergic receptor antagonist and activates the locus coeruleus (LC) and increases noradrenergic signaling (the opposite of alpha2-adrenergic agonists like dexmedetomidine and clonidine). Increased LC activity and noradrenergic signaling makes animals anxious and agitated which can be measured by using the elevated plus maze. In the elevated plus maze, rodents were in the closed arms and explored the open arms depending on their anxiety and agitation (rats and mice normally explore their environments extensively when calm). […] This behavior is correlated to increased level of anxiety caused by noradrenergic mediated hyperarousal.
# Animal groups: Male: Wistar rats were used in this study and were randomly divided to different experimental groups (12 animals per group).
# Study drugs: Four test drugs with different mechanisms of action linked to agitation were chosen to find drugs that are effective in reducing yohimbine-induced agitation: (1) Fluvoxamine (selective serotonin reuptake inhibitor) (2) Dextromethorphan (modulator of NMDA signals) (3) Diazepam (modulator of gamma-aminobutyric acid (GABA) as a positive control) and (4) Latrepirdine (complex pharmacology).
# The test drugs were procured from Sigma or Tocris. dextromethorphan from Sigma Aldrich, Cat No. D9684; latrepirdine from Sigma Aldrich, Cat No. D6196 or Tocris Cat No. 3201 diazepam and fluvoxamine Sigma Aldrich, Cat No. F2802 or Tocris, Cat No. 1033. All these test drugs were formulated in sufficient quantity in 0.9% saline except for fluvoxamine, which was formulated in 30% ethanol in 0.9% saline.
# Apparatus: Elevated Plus Maze (EPM) was used (FIG. 1). The maze consisted of two closed arms and two open arms forming a cross, with a square center platform. All visible surfaces were made of black acrylic. Each arm of the maze was placed on a support column above the floor. Antistatic black vinyl curtains used for surrounding the EPM to make an enclosure.
# Study design and dosing: Yohimbine was administered by intraperitoneal injection (i.p.) at a dose of 2.5 mg/kg (30 minutes prior to study) to induce agitation and the effects were assessed 30 minutes after yohimbine injection by measuring the number of open arm entries and exploration time in the EPM. The test drugs fluvoxamine, dextromethorphan and latrepirdine dihydrochloride hydrate were administered through intramuscular route and, diazepam through intraperitoneal route into the hindleg thigh muscle of rats (60 minutes prior to study; 30 minutes prior to yohimbine administration). Diazepam was injected 30 minutes intraperitonially prior to the assay i.e. along with yohimbine administration. The study design is illustrated in FIG. 2 and table 5.
# After the test drug administration, the rat was placed on the platform opposite a closed arm. The number of entries and the time spent in each arm were recorded during a 5 min period. The animal was considered as entered in arm when it placed its four paws into the arm.
# Statistical analysis: Analysis of variance (ANOVA) was performed on the result data. Fisher's PLSD was used for pairwise comparisons and p value≤0.05 was considered significant.
# [2] = tested on: mouse behavior (SmartCube signature); assay: SmartCube system behavioral classification (Example 6); assay type: in vivo, Male C57/B16 mice; conditions: IP
# Text: Dexmedetomidine and latrepirdine have anti-psychotic effects, when tested in the SmartCube® system (Psychogenics, Inc., Paramus, NJ; See also U.S. Pat. No. 7,580,798 incorporated herein by reference in its entirety). This system uses features derived from mouse behavioral data to first, classify mice on compound versus vehicle. This measure indicates how well the system can differentiate between a mouse on compound versus a mouse on vehicle. Secondly, by comparing the features to a proprietary reference database of behavioral feature sets that are linked to classes of marketed drugs known to treat neuro-psychiatric symptoms SmartCube® assigns a signature to the behavior. Thus, the system can be used as a model to identify both the activity and the psychiatric effect of a compound by comparing the effects of the compounds against drugs with known validated effects.
# By comparing the responses of animals to known drugs, the test drug can be categorized according to its function; for example, hallucinogen, anxiogenic, analgesic, cognitive enhancer, psychostimulant, mood stabilizer, high dose anti-psychotic, anti-psychotic, sedative/hypnotic, anxiolytic, high dose antidepressant, antidepressant.
# Once all features are extracted from the raw data through an automated pipeline, proprietary bioinformatics algorithms are used to decorrelate groups of features and find the combination of values that best separate different groups of interest. For each compound, at each dose, they system provides a probability that the drug is active and breaks down such putative activity into the different classes of interest.
# SmartCube reference data used herein include anti-psychotics and anti-depressants tested at several dose ranges. “Anti-psychotic” versus “high dose anti-psychotic” as indicated in the legend, reflects the notion that anti-psychotics reference data is dose dependent. Anti-psychotics, when administered at higher doses, can engage additional receptor systems, and thus affect mouse behavior differently. The same applies for different doses of anti-depressants.
# Animals: Male C57/B16 mice (N=12 per group) from Taconic Laboratories were used. Upon receipt, mice were group-housed in OPTI mouse ventilated cages with 4 mice per cage. Mice were acclimated to the colony room for at least one week prior to test and subsequently tested at approximately 8-9 weeks of age. All animals were examined, handled, and weighed prior to initiation of the study to assure adequate health and suitability and to minimize non-specific stress associated with manipulation.
# All compounds tested were formulated in NP3 (vehicle solution): 5% Pharmasolve; 30% P3 (1:1:1 PEG200: PEG400: propylene glycol); 65% saline; pH is 5.1-6.
# Test groups were: • Vehicle: NP3 • Dexmedetomidine at 0.005 and 0.010 mg/kg • Latrepirdine at 1 and 10 mg/kg • Dexmedetomidine and latrepirdine combinations (in mg/kg): 0.005/1.0; 0.005/10; 0.010/1.0; 0.010/10
# Test compounds were injected intraperitoneally (IP) for 15 min before animals were placed in SmartCube for assessment.
# Antipsychotic: SmartCube classifies the mouse behavior with test compound as similar to treatment with marketed anti-psychotics at therapeutically relevant doses.
# High Dose Antipsychotic: SmartCube classifies the mouse behavior on test compound as similar to treatment with marketed anti-psychotics at doses that are considered as high therapeutically. High doses of anti-psychotics often cause sedation.
# The results for the class analyses are presented as standardized bar charts with percentages that sum to 100 for each dose. The percentage indicates the probability the classifier can differentiate between the vehicle group and test group. The pattern indicates what class signature was assigned.
# [3] = 3 mg/kg and 10 mg/kg, i.m., 60 min prior, yohimbine 2.5 mg/kg i.p.
structure (smiles),measurement,setting,value
Cc1ccc2c(c1)c1c(n2CCc2ccc(C)nc2)CCN(C)C1 [latrepirdine dihydrochloride hydrate],"open arm entries and time spent, comparison with diazepam","[1]; 3 mg/kg and 10 mg/kg, i.m. versus diazepam 1 mg/kg, i.p.",comparable to diazepam
same,number of open arm entries,[1]; [3],significantly increased number of open arm entries; also recorded: significantly increased the number of entries into the open arms
same,time spent in the open arms (exploration time),[1]; [3],increased exploration time; also recorded: significantly increased
same,yohimbine-induced noradrenergic mediated hyperarousal,"[1]; latrepirdine 3 mg/kg and 10 mg/kg, i.m., yohimbine 2.5 mg/kg i.p.",reversed yohimbine-induced noradrenergic mediated hyperarousal
"Cc1ccc2c(c1)c1c(n2CCc2ccc(C)nc2)CCN(C)C1 [latrepirdine, 2,8-dimethyl-5-[2-(6-methylpyridin-3-yl)ethyl]-3,4-dihydro-1H-pyrido[4,3-b]indole]",SmartCube signature,[2]; 1 and 10 mg/kg,antipsychotic signature
same,SmartCube total activity,[2]; latrepirdine 1.0 mg/kg,20%
same,SmartCube total activity,[2]; latrepirdine 10 mg/kg,80%
